Source: the NIST ThermoML archive (doi:10.1021/je400781b)
± gives the expanded uncertainty stated by the source.

Legend:
[1] = 101 kPa, Liquid; for speed of sound: Frequency=2.75 MHz, Pulse-echo method; for mass density: Vibrating tube method
[2] = refractive index (Na D-line) (dimensionless); details: 298.15 K; 101.33 kPa; Liquid; Standard Abbe refractometry
[3] = xn = mol fraction of the nth substance listed; details: 101 kPa, Liquid, x2 = 0; for speed of sound: Frequency=2.75 MHz, Pulse-echo method; for mass density: Vibrating tube method

CCCC[n+]1ccn(C)c1.O=S(=O)([N-]S(=O)(=O)C(F)(F)F)C(F)(F)F
[1]
Details | mass density [kg/m3] | speed of sound [m/s]
293.15 K | 1439.23 ± 0.61 | 1237.9 ± 1.5
298.15 K | 1434.44 ± 0.61 | 1226.7 ± 1.5
303.15 K | 1429.65 ± 0.6 | 1215.6 ± 1.5
308.15 K | 1424.88 ± 0.6 | 1204.6 ± 1.5
313.15 K | 1420.12 ± 0.59 | 1193.7 ± 1.5

Details | refractive index
[2] | 1.4265 ± 0.0008

CC#N [acetonitrile]
[1]
Details | mass density [kg/m3] | speed of sound [m/s]
293.15 K | 782 ± 0.15 | 1298.2 ± 1.2
298.15 K | 776.6 ± 0.15 | 1277.7 ± 1.2
303.15 K | 771.18 ± 0.15 | 1257.2 ± 1.2
308.15 K | 765.72 ± 0.15 | 1236.9 ± 1.2
313.15 K | 760.24 ± 0.16 | 1216.6 ± 1.2

Details | refractive index
[2] | 1.3416 ± 0.0008

CC#N [acetonitrile] + CCCC[n+]1ccn(C)c1.O=S(=O)([N-]S(=O)(=O)C(F)(F)F)C(F)(F)F
[3]
Details | mass density [kg/m3] | speed of sound [m/s]
293.15 K | 782 ± 0.15 | 1298.2 ± 1.2
298.15 K | 776.6 ± 0.15 | 1277.7 ± 1.2
303.15 K | 771.18 ± 0.15 | 1257.2 ± 1.2
308.15 K | 765.72 ± 0.15 | 1236.9 ± 1.2
313.15 K | 760.24 ± 0.16 | 1216.6 ± 1.2

C1CCOC1 [tetrahydrofuran]
[1]
Details | mass density [kg/m3] | speed of sound [m/s]
293.15 K | 887.52 ± 0.12 | 1301.9 ± 1.2
298.15 K | 882.06 ± 0.13 | 1277.5 ± 1.2
303.15 K | 876.57 ± 0.13 | 1253.2 ± 1.2
308.15 K | 871.04 ± 0.13 | 1229 ± 1.2

Details | refractive index
[2] | 1.4052 ± 0.0008

C1CCOC1 [tetrahydrofuran] + CCCC[n+]1ccn(C)c1.O=S(=O)([N-]S(=O)(=O)C(F)(F)F)C(F)(F)F
[3]
Details | mass density [kg/m3] | speed of sound [m/s]
293.15 K | 887.52 ± 0.12 | 1301.9 ± 1.2
298.15 K | 882.06 ± 0.13 | 1277.5 ± 1.2
303.15 K | 876.57 ± 0.13 | 1253.2 ± 1.2
308.15 K | 871.04 ± 0.13 | 1229 ± 1.2
